In patent US5525604A, “4-aminopyrimidine derivatives” (Ono Pharmaceutical Co., Ltd., priority 1994, dated 1996):
pIC50: −log10 of the molar value. Where a name gives a salt, the structure may show the parent alone.

Experiments:
TXA2 synthetase = molecular target: T1, TXA2 synthetase (Rattus norvegicus, UniProt P49430); assay: Inhibitory effect on TXA2 synthetase (TXB2 by EIA in A23187-stimulated rat whole blood); assay type: cell-based, rat (Male Wistar rats); conditions: rat heparinized whole blood, Ca ionophore A23187, TXB2 by EIA, 37° C.
T1 construct: whole blood was collected from abdominal aorta; from tissue; host or cells: heparinized whole blood of male Wistar rats (mainly platelets)
T1 sequence (P49430 1-533): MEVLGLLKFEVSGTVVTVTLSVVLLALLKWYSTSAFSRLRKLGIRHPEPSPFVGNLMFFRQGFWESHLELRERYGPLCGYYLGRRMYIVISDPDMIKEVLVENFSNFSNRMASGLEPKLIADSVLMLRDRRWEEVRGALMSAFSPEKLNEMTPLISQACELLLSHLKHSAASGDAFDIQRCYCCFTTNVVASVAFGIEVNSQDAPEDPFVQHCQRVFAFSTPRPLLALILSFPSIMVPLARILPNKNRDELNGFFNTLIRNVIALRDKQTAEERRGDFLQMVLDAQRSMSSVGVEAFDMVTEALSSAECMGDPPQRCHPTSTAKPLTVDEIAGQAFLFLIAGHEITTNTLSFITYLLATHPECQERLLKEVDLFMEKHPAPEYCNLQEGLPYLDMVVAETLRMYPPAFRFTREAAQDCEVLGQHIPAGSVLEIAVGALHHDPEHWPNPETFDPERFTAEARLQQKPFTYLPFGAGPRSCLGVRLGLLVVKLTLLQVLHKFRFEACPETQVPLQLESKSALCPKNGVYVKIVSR
Description: (2) Inhibitory effect on TXA2 synthetase
Male Wistar rats were starved overnight. 500 μL of heparinized (10 U/mL) whole blood was collected from abdominal aorta using polyethylene syringe (needle: 22 or 26 G). The blood freshly drawn from animal was preincubated with 5 μL Of test compound (concentration 10 μM) at 37° C. Five minutes later, 2.5 μL of 6 mM of Ca ionophore A23187 (final concentration of […]) was added into tube, and incubation mixture was further incubated for 15 min. The reaction was terminated by centrifugation of tubes at 12,000 rpm for 2 min. TXB2 content in the supernatant was determined by EIA as follows.
1 mL of 0.5M glycine-HCl buffer (pH 3.2) was added to 100 μL of sample. The samples were mixed well and centrifuged at 1,700 G for 10 min. at 4° C. The extracted supernatant was applied to a SEP-PAK (registered Trade Mark) C18 cartridge (Waters Assoc.). After washing with 10 mL of distilled water followed by 10 mL each of 15% ethanol and petroleum ether, the sample was eluted with 3 mL of ethyl acetate. The ethyl acetate fraction was evaporated to dryness under gentle N2 stream and the residue was dissolved in EIA buffer (final volume of 1 mL) following the addition of […] of 0.01M NaHCO3-NaOH buffer (pH 10.0). EIA for TXB2 was carried out according to a legend attached to the kit (Chyman Chemical Co., inc.) and calculated inhibition percent. Overall recovery of TXB2 in this extraction procedure was 90%..

cGMP-PDE = cGMP-PDE (Homo sapiens, UniProt O76074); assay: Inhibitory effect on cGMP-PDE (PDE IC isolated from human platelets, 3H-cGMP substrate); assay type: biochemical; conditions: 0.2 μM 3H-cGMP, pH 8.0, 2.5% DMSO

Structure (SMILES)	inhibition at 10 µM (TXA2 synthetase) [%]	pIC50 (cGMP-PDE)
c1cncc(-c2ncc(-c3cccs3)c(NCc3ccc4c(c3)OCO4)n2)c1 [Example 2, 2-(3-Pyridyl)-5-(2-thienyl)-4-(1,3-dioxaindan-5-yl)methylaminopyrimidine hydrochloride]	75	–
Cc1cnc(-n2ccnc2)nc1NCc1ccccc1 [1(e), 2-(1-Imidazolyl)-5-methyl-4-phenylmethylaminopyrimidine]	–	4.74
COCCNc1nc(-n2ccnc2)ncc1Cc1ccc(OC)cc1 [1(i), 2-(1-Imidazolyl)-5-(4-methoxyphenyl)methyl-4-(2-methoxyethyl)aminopyrimidine]	–	5.46
c1ccc(CNc2ccnc(-n3ccnc3)n2)cc1 [1(a), 2-(1-Imidazolyl)-4-phenylmethylaminopyrimidine]	–	4.42
OCCOCCNc1nc(-n2ccnc2)ncc1-c1cccs1 [1(q), 2-(1-Imidazolyl)-5-(2-thienyl)-4-[2-(2-hydroxyethoxy)ethyl]aminopyrimidine hydrochloride]	100	4.90
COCCNc1nc(-n2ccnc2)ncc1Cc1cccc(OC)c1 [1(g), 2-(1-Imidazolyl)-5-(3-methoxyphenyl)methyl-4-(2-methoxyethyl)aminopyrimidine]	–	5.42
c1cncc(CNc2nc(-n3ccnc3)ncc2-c2cccs2)c1 [1(w), 2-(1-Imidazolyl)-5-(2-thienyl)-4-(3-pyridyl)methylaminopyrimidine dihydrochloride]	83	5.70
CCc1cnc(-n2ccnc2)nc1NCc1ccccc1 [1(c), 2-(1-Imidazolyl)-5-ethyl-4-phenylmethylaminopyrimidine]	–	5.60
COc1cccc(Cc2cnc(-n3ccnc3)nc2NCCOCCO)c1 [Example 1, 2-(1-Imidazolyl)-4-[2-(2-hydroxyethoxy)ethyl]amino-5-(3-methoxyphenyl)methylpyrimidine]	–	4.68
c1ccc(CNc2nc(-n3ccnc3)ncc2-c2cccs2)cc1 [1(n), 2-(1-Imidazolyl)-5-(2-thienyl)-4-phenylmethylaminopyrimidine hydrochloride]	90	–
C=C(Cl)c1cnc(-n2ccnc2)nc1NCc1ccccc1 [1(m), 2-(1-Imidazolyl)-5-(1-chlorovinyl)-4-phenylmethylaminopyrimidine hydrochloride]	–	5.90
c1ccc(CNc2nc(-n3ccnc3)ncc2Cn2ccnc2)cc1 [1(l), 2-(1-Imidazolyl)-5-(1-imidazolyl)methyl-4-phenylmethylaminopyrimidine]	63	4.46
c1coc(CNc2nc(-n3ccnc3)ncc2-c2cccs2)c1 [1(u), 2-(1-Imidazolyl)-5-(2-thienyl)-4-(2-furyl)methylaminopyrimidine hydrochloride]	96	6.00
Cc1nc(-n2ccnc2)nc(NCc2ccccc2)c1C [1(f), 2-(1-Imidazolyl)-5,6-dimethyl-4-phenylmethylaminopyrimidine]	–	5.44
c1ccc(CONc2nc(-n3ccnc3)ncc2-c2cccs2)cc1 [1(y), 2-(1-Imidazolyl)-5-(2-thienyl)-4-phenylmethoxyaminopyrimidine hydrochloride]	89	5.57
COCCNc1nc(-n2ccnc2)ncc1-c1cccs1 [1(x), 2-(1-Imidazolyl)-5-(2-thienyl)-4-(2-methoxyethyl)aminopyrimidine hydrochloride]	87	5.22

Further compounds by rising pIC50 (cGMP-PDE), results first:

inhibition at 10 µM (TXA2 synthetase) [%]	pIC50 (cGMP-PDE)	Structure (SMILES)
–	6.00	c1ccc(CNc2nc(-n3ccnc3)ncc2Cc2ccccc2)cc1 [1(d), 2-(1-Imidazolyl)-5-phenylmethyl-4-phenylmethylaminopyrimidine]
94	6.11	COc1ccc(Cc2cnc(-n3ccnc3)nc2NCc2ccccc2)cc1 [1(j), 2-(1-Imidazolyl)-5-(4-methoxyphenyl)methyl-4-phenylmethylaminopyrimidine]
–	6.12	c1ccc(CNc2nc(-n3ccnc3)ncc2COc2ccccc2)cc1 [1(k), 2-(1-Imidazolyl)-5-phenoxymethyl-4-phenylmethylaminopyrimidine dihydrochloride]
99	6.15	COc1ccc(Cc2cnc(-n3ccnc3)nc2NCCOCCO)cc1 [1(h), 2-(1-Imidazolyl)-5-(4-methoxyphenyl)methyl-4-[2-(2-hydroxyethoxy)ethyl]aminopyrimidine]
–	6.46	c1csc(-c2cnc(-n3ccnc3)nc2NCc2cccc3ccccc23)c1 [1(r), 2-(1-Imidazolyl)-5-(2-thienyl)-4-(1-naphthyl)methylaminopyrimidine]
100	6.51	c1csc(CNc2nc(-n3ccnc3)ncc2-c2cccs2)c1 [1(v), 2-(1-Imidazolyl)-5-(2-thienyl)-4-(2-thienyl)methylaminopyrimidine hydrochloride]
100	6.64	COc1cccc(CNc2nc(-n3ccnc3)ncc2-c2cccs2)c1 [1(t), 2-(1-Imidazolyl)-5-(2-thienyl)-4-(3-methoxyphenyl)methylaminopyrimidine hydrochloride]
65	6.92	c1ccc(CNc2nc(-n3ccnc3)ncc2-c2nccs2)cc1 [1(o), 2-(1-Imidazolyl)-5-(2-thiazolyl)-4-phenylmethylaminopyrimidine hydrochloride]
–	7.21	Clc1ccc(CNc2nc(-n3ccnc3)ncc2-c2cccs2)cc1 [1(z), 2-(1-Imidazolyl)-5-(2-thienyl)-4-(4-chlorophenyl)methylaminopyrimidine hydrochloride]
90	7.60	c1csc(-c2cnc(-n3ccnc3)nc2NCc2ccc3c(c2)OCO3)c1 [1(p), 2-(1-Imidazolyl)-5-(2-thienyl)-4-(1,3-dioxaindan-5-yl)methylaminopyrimidine hydrochloride]
90	7.85	c1ccc(-c2cnc(-n3ccnc3)nc2NCc2ccc3c(c2)OCO3)cc1 [1(bb)]
